Results reported in US20250382556A1, “MODULATION OF THE BRANCHED-CHAIN METABOLITE CONTENT OF FRUITS AND VEGETABLES” (BOARD OF TRUSTEES OF MICHIGAN STATE UNIVERSITY, priority 2024, published 2025).

How the values were obtained:
[1] = system: ‘Red Delicious’ apple fruit; assay: Physiology of MCP-treated stored apple fruit (respiration, firmness); assay type: in vivo, Malus x domestica Borkh.; conditions: Red Delicious after five months storage in air at 0° C. and warming
Description: ‘Gala’, ‘Empire’, ‘Jonagold’, and ‘Red Delicious’ apple fruit (Malus x domestica Borkh.) were harvested from local orchards at commercial maturity and transported to the laboratory during the 2022 and 2023 seasons. As determined by previously described methods, the fruit were at the developmental onset of ripening with no subjectively discernible aroma. ‘Gala’ and ‘Empire’ fruits began treatment immediately after arrival in the laboratory. ‘Jonagold’ fruit were held in air at 0° C. for two days before transfer to controlled atmosphere (CA) storage (1.5 O2, 3% CO2, 0° C.) and then kept in CA for twelve days to suppress ethylene action before the initiation of inhibitor treatment. ‘Red Delicious’ fruit were treated with 50 nL·^−1 1-methylcyclopropene (MCP) for 24 h at 0° C. The MCP was evolved from a commercial MCP product (EASYFRESH®, Fine Americas) in sealed chambers two days after harvest as previously described. The fruit were then stored in air at 0° C. for five months and were warmed to 22° C. for 24 h before sulfonylurea treatment. This low-dosage MCP treatment had very mild effects on physiology. […] Based on the internal ethylene concentration (˜100 μL·L^−1) and the total ester production (elevated and trending upwards), the fruit were considered to be of an advanced stage of ripeness, but not senescent. […]

[2] = system: banana pulp; assay: Headspace volatile ester emissions of banana pulp sections treated with AHAS inhibitor; parameters: species or system Musa spp. AAA group, Cavendish subgroup, cv. Valery; key to 1-methylbutyl acetate emissions compared to control: —: Dash indicates no significant difference between treatments
Description: Banana fruit at an early stage of ripening were infiltrated with AHAS inhibitors by two means. The first method was used for the effects of sulfonylureas on volatile and amino acid content, whereas the second was used to investigate the recovery of sulfonylurea-treated fruits after precursor application.
(§1) In the first method, mature green ‘Valery’ fruit were cut into ˜1 cm^2 sections, 2-mm thick, from transverse sections of fruit not treated with ethylene. Care was taken such that one edge of the square was from the edge of the pulp, thus representing an undisturbed or ‘live edge’ of cells that should be able to maintain unhindered gas exchange. Pulp sections were prepared in vials as above described for apples. Treatment solution: 0.5 mM halosulfuron-methyl (methyl 3-chloro-5-(4,6-dimethoxypyrimidin-2-ylcarbamoylsulfamoyl)-1-methylpyrazole-4-carboxylate, made from SANDEA®, Gowan Co. 75% w/w active ingredient; 0.1% Tween 20). Ripening was induced by injection of 1 μL ethylene into the vial's 20-mL headspace. The following day the vials were vented for 15 min before having the Mininert valve (Valco Instruments Co. Inc.) replaced on the vial but with a needle inserted to allow for gas diffusion. Daily for the following two days, 20 μL of freshly made inhibitor or water solution was added onto the pulp. The needles were again kept in the valves to maintain gas diffusion. The next day, and thus four days since initially preparing the vials, the needles were removed, and the vials were sealed and incubated for at least 1 hour at room temperature (22° C.) before headspace sampling.
Headspace volatiles from small tissue samples incubated in 22 mL vials were adsorbed for 30 s using a solid-phase micro extraction (SPME) fiber (65 μm PDMS-DVB; Supelco Analytical). The SPME fiber was then directly desorbed for 1 min in the injection port of a gas chromatograph (GC; HP-6890, Hewlett-Packard) coupled to a time-of-flight mass spectrometer (MS; Pegasus II, LECO). Whole fruits and banana slices were incubated for 20 min at room temperature (22° C.) in 1-L sealed Teflon jars before a 15-s, or 3-min adsorption and 1- or 2-min desorption. Adsorption times were adjusted to ensure instrument responses were in the linear range. All desorbed volatiles were cryofocused at the beginning of the column by immersing said region of the column in liquid nitrogen. After the desorption period, the run was initiated and the liquid nitrogen removed.
The conditions of the system were as follows. Injection port: 200° C., splitless, ultra-purified helium (99.999%) carrier gas, front inlet flow 1.5 mL·min^−1 constant, 10 mL·min^−1 purge flow, 11.5 mL·min^−1 total flow. Oven: initial temperature 40° C. for 0 min, ramped by 43° C.·min^−1 to 185° C. for 0 min. Column: HP-5 MS, 30 m×0.25 mm i.d., 0.25 μm film thickness (Agilent). Transfer line temperature 225° C. MS: Electron ionization (−70 eV), ion source temperature 200° C., solvent delay 50 sec, m/z range 29 to 400, detector voltage 1500 V, data collection rate 20 Hz.
Compounds were identified by comparison of the retention time and mass spectrum against authenticated reference standards and spectra (National Institute of Standards and Technology Mass Spectral Search Program Version 2.0, 2001). Volatiles were quantified by calibration with a standard of 59 authenticated, high-purity compounds (Sigma-Aldrich Co. and Fluka Chemical) including the target compounds. The standard was made by placing 0.5 μL of an equal-part mixture of the neat compounds onto a disc of filter paper before quickly placing the filter paper into a 4-L sealed flask fitted with a Mininert valve (for SPME fiber access, and allowed to vaporize for at least 6 hours. SPME adsorption and desorption times of the standard matched that of the samples quantified (e.g., 30-s adsorption, 1 min desorption when quantifying samples in 22-mL vials).
Statistical analysis was performed using SciPy (v1.6.2), RStudio (v2023.03.0+386), or Microsoft Excel (v16.89). […]

[3] = system: banana pulp; assay: Free amino acid content of banana pulp via UPLC-MS/MS after AHAS inhibitor treatment; parameters: species or system Musa spp. AAA group, Cavendish subgroup, cv. Valery; key to free asparagine content compared to control / free glutamine content compared to control / free histidine content compared to control / free isoleucine content compared to control / free lysine content compared to control / free methionine content compared to control / free phenylalanine content compared to control / free threonine content compared to control / free tryptophan content compared to control / free arginine content compared to control: —: Dash indicates no significant difference between treatments
Description: as §1
After volatile analysis, apple peel disks, collected peel of flowering quince, and ‘Valery’ pulp section samples were held at −80° C. for further amino acid analysis.
Frozen samples were ground to a powder in liquid nitrogen-chilled mortar and pestles. About 500 mg of tissue was vortexed for 10 sec in 2 mL of room temperature (22° C.) extraction solution (1:1:1 water:acetonitrile:ethanol, v/v/v) spiked with 2 nmoles of U-^13C,^15N labeled amino acids (MilliporeSigma) as internal standards and heated for 15 min in a 65° C. water bath. Extracts were briefly chilled on ice before centrifugation at 4400×g for 15 min at 4° C. The supernatant was filtered by centrifugation (0.2 μm nylon centrifugal filter; Costar, Corning) at 21000×g for 5 min at room temperature. 10 μL of the filtrate was transferred to an autosampler vial and diluted 100-fold with 990 μL of 10.1 mM perfluorohexanoic acid (PFHA) spiked with […] of internal standard. Thus the final concentration of internal standard was ˜2 μM.
An amino acid standard series was prepared from a premade mixture (MilliporeSigma, AAS18) that contained equal molar amounts of cystine and all 20 proteinogenic amino acids save for tryptophan, asparagine, glutamine, and cysteine. An equal molar mixture of tryptophan, asparagine, glutamine, and cysteine was subsequently prepared. To avoid dilution errors or artefacts from differing buffers, these amino acid stocks were aliquoted and desiccated such that a five-part standard series ranging from 250 μM to 25 nM would be produced upon resuscitation with 10 μL of spiked extraction buffer and 990 μL spiked PFHA solution.
Samples and amino acids were held overnight at −20° C. before analysis. Amino acids were analyzed with a Xevo TQ-S Micro UPLC (H-Class)-MS/MS (Waters) at the Michigan State University Mass Spectrometry and Metabolomics Core. Conditions were as follows. HPLC column: Acquirt UPLC HSS T3, 2.1×100 mm, 1.7 μm particle size (Waters), with a 0.2 μm pre-column filter (Waters). Mobile phase: A) 10 mM PFHA in water, B) acetonitrile. LC gradient: linear gradient, slope setting=6, flow rate=0.3 mL·min^−1, step 1) 0 min, 100% A, 0% B, 2) 1 min, 100% A, 0% B, 3) 8 min, 35% A, 65% B, 4) 8.01 min, 10% A, 90% B, 5) 9 min, 10% A, 90% B, 6) 9.01 min, 100% A, 0% B, 7) 13 min, 100% A, 0% B. Column temp: 40° C. Autosampler temp: 10° C. Injection volume: 10 μL. Tune parameters: electrospray ionization, standard ESI probe, capillary voltage=+1.0 kV, source temp=120° C., desolvation temp=350° C., desolvation gas=800 L·hr^−1, cone gas=40 L·hr^−1. […]

[4] = Valery banana pulp sections, 0.5 mM

## CC1=CC1 [MCP, 1-methylcyclopropene]
[1]
  respiration rate of MCP-treated fruit relative to untreated fruit: 88.7%

## COC(=O)c1c(Cl)nn(C)c1S(=O)(=O)NC(=O)Nc1nc(OC)cc(OC)n1 [halosulfuron-methyl, methyl 3-chloro-5-(4,6-dimethoxypyrimidin-2-ylcarbamoylsulfamoyl)-1-methylpyrazole-4-carboxylate]
[2]; Valery banana fruit
  ethyl acetate, butyl acetate, and butyl butanoate collectively reduced: 95.0%
  reduction in the total content of iso-branched-chain esters in the headspace: 90.3%
  sec-branched esters or related volatiles (2-pentanone, 2-pentanol, 1-methylbutyl acetate, 1-methylbutyl butanoate) affected by inhibitor treatment: None
[2]; [4]
  1-methylbutyl acetate emissions compared to control: —
  2-methylpropyl acetate (val) emissions compared to control: 2.0 ± 0.7%
  3-methylbutyl acetate (leu) emissions compared to control: 10.4 ± 5.4%
  butyl acetate emissions compared to control: 3.9 ± 2.7%
  ethyl acetate emissions compared to control: 3.9 ± 2.4%
  sum of anteiso- and iso-branched-chain esters emissions compared to control: 9.7 ± 3.6%
[3]; Valery banana fruit
  isoleucine levels: unchanged
  total content of free amino acids: increased
  valine and leucine less abundant: 57.6%
[3]; [4]
  free alanine content compared to control: 407.4 ± 66.8%
  free arginine content compared to control: —
  free asparagine content compared to control: —
  free aspartate content compared to control: 332.7 ± 30.1%
  free cysteine content compared to control: 264.2 ± 46.6%
  free glutamate content compared to control: 217.4 ± 23.9%
  free glutamine content compared to control: —
  free glycine content compared to control: 173.1 ± 39.9%
  free histidine content compared to control: —
  free isoleucine content compared to control: —
  free leucine content compared to control: 65.8 ± 6.1%
  free lysine content compared to control: —
  free methionine content compared to control: —
  free phenylalanine content compared to control: —
  free proline content compared to control: 188.4 ± 18.7%
  free serine content compared to control: 186.2 ± 14.5%
  free threonine content compared to control: —
  free tryptophan content compared to control: —
  free tyrosine content compared to control: 142.3 ± 25.1%
  free valine content compared to control: 14.3 ± 0.8%
  total free amino acid content compared to control: 150.6 ± 13.7%
